Reference: US20250263370A1 (Tay Therapeutics Limited, priority 2022, published 2025)

Key:
[1] = Plasma stability assay, mouse plasma; assay type: in vitro ADME; conditions: Method 1 (5 μM)
Description: From stock solution of compound in 10 mM DMSO, a working solution of 1 mM is prepared by diluting the compound in DMSO. To 398 μL of plasma pre-warmed at 37° C. for 15 minutes), 2 μL of working solution of compound is added, resulting in a final concentration of 5 μM (0.5% DMSO) for the compound. The sample is then incubated at 37° C. Aliquot is withdrawn at specified time-points (0, 15, 30, 60 and 120 mins). The reaction is stopped by addition of 450 μL cold acetonitrile containing internal standard (IS). […] Aliquots of the supernatant is analysed using LC-MS/MS. The percent remaining of the compound at each time point is calculated with respect to the control sample (0 min time-point).
A working solution of compound (500 μM) is prepared in DMSO (100%). To 735 μL of plasma, 15 μL of working solution of compound is added—resulting in a final concentration of 10 μM (2% DMSO) for the compound. The sample is then incubated at 37° C. Aliquot is withdrawn at time-points—0, 15, 30, 60, 90 and 120 mins. The reaction is stopped by using chilled acetonitrile containing internal standard (IS). The samples are centrifuged and the supernatants analyzed using LC-MS/MS. The percent remaining of the compound at each time point is calculated with respect to the control sample (0 min time-point).

[2] = Sprague-Dawley rat pharmacokinetics, IV and PO cassette dosing; assay type: in vivo
Summary of the method: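 Male Sprague-Dawley rats (2 per arm) given up to 5 compounds in cassette, 1 mg/kg IV and 5 mg/kg PO, formulated in 5% DMSO/40% PEG-400/55% water. Plasma from serial blood samples was acetonitrile-precipitated and analysed by LC/MS/MS against matrix-matched standard curves.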

Question: With `CNC(=O)c1[nH]c(C(=O)NC2CCC2)cc1O[C@@H](C)c1ccccc1` (stereo in doubt) [Example 101, N^5-cyclobutyl-N^2-methyl-3-(1-phenylethoxy)-1H-pyrrole-2,5-dicarboxamide] as the compound, how does the “Plasma Stability (% remaining at 120 minutes), Mouse” value [1] read?
Answer: >99%

Question: What about the “PO F” value ([2]; PO 5 mg/kg, Method 1) of the same compound?
Answer: 66%

Question: What about the half-life ([2]; male, Sprague-Dawley, rat, plasma, iv, 1 mg/kg, IV 1 mg/kg, Method 1, read-out: IV T1/2 (converted)) of the same compound?
Answer: 54 min
